Converted amounts (≈) assume the structure as drawn. The source made the active and inactive calls. No cut-off for these calls is given here.
Columns and labels:
[1] = test system: Staphylococcus epidermidis; assay: Antibacterial activity against methicillin-resistant Staphylococcus epidermidis assessed as zone of inhibition at 30 ug/mL after 24 hrs by agar disc diffusion method; assay type: functional; details: read-out: IZ
Staphylococcus aureus [2] = assay: Antibiofilm activity against methicillin-resistant Staphylococcus aureus at 2 times MIC after 24 hrs by crystal violet staining-based UV-visible spectrophotometric analysis; assay type: functional, organism-based
[3] = test system: Staphylococcus epidermidis; assay: Antibacterial activity against methicillin-resistant Staphylococcus epidermidis after overnight incubation by micro broth dilution analysis; assay type: functional
Staphylococcus aureus [4] = assay: Antibiofilm activity against methicillin-resistant Staphylococcus aureus planktonic biofilm assessed as optical density at 492 nm at MIC after 24 hrs by crystal violet staining-based UV-visible spectrophotometric analysis; assay type: functional
[5] = test system: Staphylococcus haemolyticus; assay: Antibacterial activity against methicillin-resistant Staphylococcus haemolyticus assessed as zone of inhibition at 30 ug/mL after 24 hrs by agar disc diffusion method; assay type: functional; details: read-out: IZ
Staphylococcus aureus [6] = assay: Antibacterial activity against methicillin-resistant Staphylococcus aureus after overnight incubation by micro broth dilution analysis; assay type: functional
Staphylococcus aureus [7] = assay: Antibacterial activity against methicillin-resistant Staphylococcus aureus assessed as zone of inhibition at 30 ug/mL after 24 hrs by agar disc diffusion method; assay type: functional; details: read-out: IZ
[8] = test system: Staphylococcus haemolyticus; assay: Antibacterial activity against methicillin-resistant Staphylococcus haemolyticus after overnight incubation by micro broth dilution analysis; assay type: functional
Staphylococcus aureus [9] = assay: Antibacterial activity against methicillin-resistant Staphylococcus aureus assessed as zone of inhibition at 10 ug/mL after 24 hrs by agar disc diffusion method; assay type: functional; details: read-out: IZ
[10] = test system: Staphylococcus haemolyticus; assay: Antibacterial activity against methicillin-resistant Staphylococcus haemolyticus assessed as zone of inhibition at 10 ug/mL after 24 hrs by agar disc diffusion method; assay type: functional; details: read-out: IZ
[11] = test system: Staphylococcus epidermidis; assay: Antibacterial activity against methicillin-resistant Staphylococcus epidermidis assessed as zone of inhibition at 10 ug/mL after 24 hrs by agar disc diffusion method; assay type: functional; details: read-out: IZ
[12] = test system: Staphylococcus haemolyticus; assay: Antibacterial activity against methicillin-resistant Staphylococcus haemolyticus assessed as zone of inhibition at 400 ng/mL after 24 hrs by agar disc diffusion method; assay type: functional; details: read-out: IZ
[13] = test system: Staphylococcus haemolyticus; assay: Antibacterial activity against methicillin-resistant Staphylococcus haemolyticus assessed as zone of inhibition at 800 ng/mL after 24 hrs by agar disc diffusion method; assay type: functional; details: read-out: IZ
[14] = test system: Staphylococcus haemolyticus; assay: Antibacterial activity against methicillin-resistant Staphylococcus haemolyticus assessed as zone of inhibition at 50 ug/mL after 24 hrs by agar disc diffusion method; assay type: functional; details: read-out: IZ
Staphylococcus aureus [15] = assay: Antibiofilm activity against methicillin-resistant Staphylococcus aureus at MIC after 24 hrs by crystal violet staining-based UV-visible spectrophotometric analysis; assay type: functional, organism-based
[16] = test system: Staphylococcus epidermidis; assay: Antibacterial activity against methicillin-resistant Staphylococcus epidermidis assessed as zone of inhibition at 20 ug/mL after 24 hrs by agar disc diffusion method; assay type: functional; details: read-out: IZ
Staphylococcus aureus [17] = assay: Antibacterial activity against methicillin-resistant Staphylococcus aureus assessed as zone of inhibition at 200 ng/mL after 24 hrs by agar disc diffusion method; assay type: functional; details: read-out: IZ
[18] = test system: Staphylococcus epidermidis; assay: Antibacterial activity against methicillin-resistant Staphylococcus epidermidis assessed as zone of inhibition at 200 ng/mL after 24 hrs by agar disc diffusion method; assay type: functional; details: read-out: IZ
Staphylococcus aureus [19] = assay: Induction of pore formation in methicillin-resistant Staphylococcus aureus cell membrane assessed as increase in ferricyanide mediated potassium efflux after 2 hrs by DCPIP dye-based cyclic voltammetric analysis; assay type: functional, organism-based
Staphylococcus aureus [20] = assay: Antibacterial activity against methicillin-resistant Staphylococcus aureus assessed as zone of inhibition at 50 ug/mL after 24 hrs by agar disc diffusion method; assay type: functional; details: read-out: IZ
Staphylococcus aureus [21] = assay: Antibacterial activity against methicillin-resistant Staphylococcus aureus assessed as zone of inhibition at 400 ng/mL after 24 hrs by agar disc diffusion method; assay type: functional; details: read-out: IZ
Staphylococcus aureus [22] = assay: Induction of pore formation in methicillin-resistant Staphylococcus aureus cell membrane assessed as increase in ferricyanide mediated cellular leakage after 2 hrs by DCPIP dye-based cyclic voltammetric analysis; assay type: functional, organism-based
[23] = test system: Staphylococcus haemolyticus; assay: Antibacterial activity against methicillin-resistant Staphylococcus haemolyticus assessed as zone of inhibition at 200 ng/mL after 24 hrs by agar disc diffusion method; assay type: functional; details: read-out: IZ
Staphylococcus aureus [24] = assay: Induction of pore formation in methicillin-resistant Staphylococcus aureus cell membrane assessed as increase in ferricyanide mediated DNA damage after 2 hrs by DCPIP dye-based cyclic voltammetric analysis; assay type: functional, organism-based
Staphylococcus aureus [25] = assay: Induction of membrane disruption in methicillin-resistant Staphylococcus aureus at MIC up to 24 hrs by SEM analysis; assay type: functional, organism-based
Staphylococcus aureus [26] = assay: Antibacterial activity against methicillin-resistant Staphylococcus aureus at MIC by SEM analysis; assay type: functional, organism-based; details: TDE = time-dependent effect
[27] = test system: Staphylococcus epidermidis; assay: Antibacterial activity against methicillin-resistant Staphylococcus epidermidis assessed as zone of inhibition at 800 ng/mL after 24 hrs by agar disc diffusion method; assay type: functional; details: read-out: IZ
Staphylococcus aureus [28] = assay: Antibiofilm activity against methicillin-resistant Staphylococcus aureus assessed as optical density at 492 nm at 1 to 2 times MIC after 24 hrs by crystal violet staining-based UV-visible spectrophotometric analysis; assay type: functional
Staphylococcus aureus [29] = assay: Antibacterial activity against methicillin-resistant Staphylococcus aureus assessed as zone of inhibition at 800 ng/mL after 24 hrs by agar disc diffusion method; assay type: functional; details: read-out: IZ
[30] = test system: Staphylococcus epidermidis; assay: Antibacterial activity against methicillin-resistant Staphylococcus epidermidis assessed as zone of inhibition at 400 ng/mL after 24 hrs by agar disc diffusion method; assay type: functional; details: read-out: IZ
Staphylococcus aureus [31] = assay: Antibiofilm activity against methicillin-resistant Staphylococcus aureus assessed as reduction in adherence of planktonic bacteria at MIC up to 24 hrs by SEM analysis; assay type: functional, organism-based
Staphylococcus aureus [32] = assay: Induction of cellular content release in methicillin-resistant Staphylococcus aureus assessed as DNA content by measuring optical density at 260 nm at MIC after 240 mins by UV-visible spectrophotometric analysis; assay type: functional

CCn1cc(C(=O)O)c(=O)c2cc(F)c(N3CCNCC3)cc21 [NORFLOXACIN]
zone of inhibition at 30 µg/mL [1]: 9.07 mm | Activity (Staphylococcus aureus [2]): Active | MIC99 [3]: 0.73 µg/mL (≈ 2.29 µM) | OD (Staphylococcus aureus [4]): 0.695 | zone of inhibition at 30 µg/mL [5]: 12.7 mm | MIC99 (Staphylococcus aureus [6]): 0.61 µg/mL (≈ 1.91 µM) | zone of inhibition at 30 µg/mL (Staphylococcus aureus [7]): 10 mm | MIC99 [8]: 0.58 µg/mL (≈ 1.82 µM)

NC[C@H]1O[C@H](O[C@H]2[C@H](O)[C@@H](O[C@H]3O[C@H](CO)[C@@H](O)[C@H](N)[C@H]3O)[C@H](N)C[C@@H]2N)[C@H](O)[C@@H](O)[C@@H]1O [KANAMYCIN]
zone of inhibition at 30 µg/mL [1]: 8.3 mm | Activity (Staphylococcus aureus [2]): Active | MIC99 [3]: 30.1 µg/mL (≈ 62.2 µM) | OD (Staphylococcus aureus [4]): 0.715 | zone of inhibition at 30 µg/mL [5]: 4.81 mm | MIC99 (Staphylococcus aureus [6]): 9.12 µg/mL (≈ 18.8 µM) | zone of inhibition at 30 µg/mL (Staphylococcus aureus [7]): 12 mm | MIC99 [8]: 21.2 µg/mL (≈ 43.7 µM)

CC1(C)S[C@@H]2[C@H](NC(=O)[C@H](N)c3ccccc3)C(=O)N2[C@H]1C(=O)O [AMPICILLIN]
Activity (Staphylococcus aureus [2]): Active | MIC99 [3]: 7.15 µg/mL (≈ 20.5 µM) | zone of inhibition at 10 µg/mL (Staphylococcus aureus [9]): 9.95 mm | OD (Staphylococcus aureus [4]): 0.745 | zone of inhibition at 10 µg/mL [10]: 7.6 mm | zone of inhibition at 10 µg/mL [11]: 11.7 mm | MIC99 (Staphylococcus aureus [6]): 0.12 µg/mL (≈ 0.343 µM) | MIC99 [8]: 10.1 µg/mL (≈ 28.9 µM)

O=S(=O)(F)/C=C/c1cc(Cl)nc(Cl)c1
zone of inhibition at 0.4 µg/mL [12]: 6.5 mm | zone of inhibition at 0.8 µg/mL [13]: 7.4 mm | zone of inhibition at 50 µg/mL [14]: 7.2 mm | Activity (Staphylococcus aureus [15]): Active | zone of inhibition at 20 µg/mL [16]: 7.1 mm | zone of inhibition at 0.2 µg/mL (Staphylococcus aureus [17]): 7.1 mm | zone of inhibition at 0.2 µg/mL [18]: 5.4 mm | Activity (Staphylococcus aureus [19]): Active | zone of inhibition at 50 µg/mL (Staphylococcus aureus [20]): 12.1 mm | zone of inhibition at 0.4 µg/mL (Staphylococcus aureus [21]): 9.2 mm | Activity (Staphylococcus aureus [22]): Active | MIC99 [3]: 0.84 µg/mL (≈ 3.28 µM) | zone of inhibition at 0.2 µg/mL [23]: 5.2 mm | Activity (Staphylococcus aureus [24]): Active | Activity (Staphylococcus aureus [25]): Active | Activity (Staphylococcus aureus [26]): Tde | OD (Staphylococcus aureus [4]): 0.725 | zone of inhibition at 0.8 µg/mL [27]: 7.2 mm | OD (Staphylococcus aureus [28]): 0.72 | zone of inhibition at 0.8 µg/mL (Staphylococcus aureus [29]): 11.4 mm | zone of inhibition at 0.4 µg/mL [30]: 6.3 mm | MIC99 (Staphylococcus aureus [6]): 0.811 µg/mL (≈ 3.17 µM) | Activity (Staphylococcus aureus [31]): Active | OD (Staphylococcus aureus [32]): 1.85 | MIC99 [8]: 0.842 µg/mL (≈ 3.29 µM)

N#Cc1ccc(/C=C/S(=O)(=O)F)cc1
zone of inhibition at 0.4 µg/mL [12]: 5.1 mm | zone of inhibition at 0.8 µg/mL [13]: 6.2 mm | zone of inhibition at 50 µg/mL [14]: 7.2 mm | Activity (Staphylococcus aureus [15]): Active | zone of inhibition at 20 µg/mL [16]: 7.5 mm | zone of inhibition at 0.2 µg/mL (Staphylococcus aureus [17]): 6.1 mm | zone of inhibition at 0.2 µg/mL [18]: 5.2 mm | Activity (Staphylococcus aureus [19]): Active | zone of inhibition at 50 µg/mL (Staphylococcus aureus [20]): 11.4 mm | zone of inhibition at 0.4 µg/mL (Staphylococcus aureus [21]): 7.3 mm | Activity (Staphylococcus aureus [22]): Active | MIC99 [3]: 0.831 µg/mL (≈ 3.93 µM) | zone of inhibition at 0.2 µg/mL [23]: 4.2 mm | Activity (Staphylococcus aureus [24]): Active | OD (Staphylococcus aureus [4]): 0.685 | zone of inhibition at 0.8 µg/mL [27]: 7.6 mm | OD (Staphylococcus aureus [28]): 0.68 | zone of inhibition at 0.8 µg/mL (Staphylococcus aureus [29]): 8.5 mm | zone of inhibition at 0.4 µg/mL [30]: 6.3 mm | MIC99 (Staphylococcus aureus [6]): 0.84 µg/mL (≈ 3.98 µM) | OD (Staphylococcus aureus [32]): 1.42 | MIC99 [8]: 0.847 µg/mL (≈ 4.01 µM)

From ChEMBL document CHEMBL4382233, “Discovery of novel arylethenesulfonyl fluorides as potential candidates against methicillin-resistant of Staphylococcus aureus (MRSA) for overcoming multidrug resistance of bacterial infections” (2019)
